In ChEMBL document CHEMBL3045270, “Synthesis and Fungicidal Activities of Heterocyclic Compounds Having -Methoxyimino-2-phenoxymethylbenzyl Group” (2000) one finds Activity data, which are given here for 41 molecules.

Format in all cases: functional
Test [1] relates to Botrytis cinerea. Kind of test: Fungicidal activity against Botryotinia fuckeliana infected cucumber plant at 500 ppm by foliar application.
Test [2] relates to Podosphaera fuliginea. Description: Fungicidal activity against Podosphaera fuliginea infected cucumber plant at 500 ppm by foliar application.
The test system of test [3] is Podosphaera fuliginea. Kind of test: Fungicidal activity against Podosphaera fuliginea infected cucumber plant at 125 ppm by foliar application.
The test system of test [4] is Podosphaera fuliginea. Description: Fungicidal activity against Podosphaera fuliginea infected cucumber plant at 31.3 ppm by foliar application.
The subject of test [5] is Podosphaera fuliginea. Kind of test: Fungicidal activity against Podosphaera fuliginea infected cucumber plant at 7.8 ppm by foliar application.
Test [6] concerns Botrytis cinerea. Kind of test: Curative fungicidal activity against Botryotinia fuckeliana infected cucumber plant at 7.8 ppm by foliar application.
The subject of test [7] is Botrytis cinerea. Kind of test: Curative fungicidal activity against Botryotinia fuckeliana infected cucumber plant at 31.3 ppm by foliar application.
The test system of test [8] is Botrytis cinerea. Description: Preventive fungicidal activity against Botryotinia fuckeliana infected cucumber plant at 7.8 ppm by foliar application.
The subject of test [9] is Botrytis cinerea. Description: Preventive fungicidal activity against Botryotinia fuckeliana infected cucumber plant at 31.3 ppm by foliar application.
For test [10], the system named is Podosphaera fuliginea. Description: Curative fungicidal activity against Podosphaera fuliginea infected cucumber plant at 7.8 ppm by foliar application.
Test [11] has as its system Podosphaera fuliginea. Kind of test: Curative fungicidal activity against Podosphaera fuliginea infected cucumber plant at 31.3 ppm by foliar application.
Test [12] has as its system Podosphaera fuliginea. Description: Preventive fungicidal activity against Podosphaera fuliginea infected cucumber plant at 7.8 ppm by foliar application.
Test [13] has as its system Podosphaera fuliginea. Kind of test: Preventive fungicidal activity against Podosphaera fuliginea infected cucumber plant at 31.3 ppm by foliar application.
The test system of test [14] is Botrytis cinerea. Kind of test: Fungicidal activity against Botryotinia fuckeliana infected cucumber plant at 31.3 ppm by foliar application.
For test [15], the system named is Botrytis cinerea. Description: Fungicidal activity against Botryotinia fuckeliana infected cucumber plant at 125 ppm by foliar application.
For test [16], the system named is Botrytis cinerea. Kind of test: Fungicidal activity against Botryotinia fuckeliana infected cucumber plant at 7.8 ppm by foliar application.

SMILES strings stand for the structures.

On to `CO/N=C(\c1ccccc1COc1ccccc1OC)c1nccn1C`, for which the Activity with Botrytis cinerea [1] is less than 50%; with Podosphaera fuliginea [2] it was 90%.
`CO/N=C(\c1ccccc1COc1cc(C)ccc1C)c1snnc1C`: the Activity is reported as less than 50% in the test on Botrytis cinerea [1] and 90% with Podosphaera fuliginea [3].
In the case of `CO/N=C(/c1nnco1)c1ccccc1COc1ccccc1Cl`, the results for the Activity in the test with Botrytis cinerea [1] and with Podosphaera fuliginea [4] were less than 50% and 90%, respectively.
On to `CO/N=C(/c1nnc(C)o1)c1ccccc1COc1cc(C)ccc1C`, for which the Activity was less than 50% in the test on Botrytis cinerea [1] and 90% in the test on Podosphaera fuliginea [5].
Consider `CO/N=C(\c1ccccc1COc1cc(C)ccc1C)c1nnnn1C`, for which the Activity is less than 50% in the test with Botrytis cinerea [1] and less than 90% with Podosphaera fuliginea [2].
For the molecule `CO/N=C(/c1noc(C)n1)c1ccccc1COc1cc(C)ccc1C`, the Activity is less than 50% in the test on Botrytis cinerea [1] and 90% in the test on Podosphaera fuliginea [4].
Consider `CO/N=C(/c1nnco1)c1ccccc1COc1ccc(Cl)cc1Cl`, for which the Activity in the test on Botrytis cinerea [1] was less than 50%; in the test with Podosphaera fuliginea [5], 90%.
On to `CNC(=O)/C(=N/OC)c1ccccc1Oc1ccccc1` [METOMINOSTROBIN], for which the Activity in the test on Botrytis cinerea [6] stood at 30%; in the test on Botrytis cinerea [7], 40%; in the test on Botrytis cinerea [8] it was 30%; with Botrytis cinerea [9] it was 55%; in the test on Podosphaera fuliginea [10], 70%; with Podosphaera fuliginea [11] it was 97%. For the same molecule, the figures for the Activity in the test with Podosphaera fuliginea [12] and with Podosphaera fuliginea [13] were 70% and 100%, respectively.
Take `CON=C(c1ccccc1COc1cc(C)ccc1C)c1nccn1C` (mixture of isomers): the Activity is given as less than 90% in the test on Botrytis cinerea [14] and 90% in the test on Podosphaera fuliginea [5].
Take `CO/N=C(/c1ncon1)c1ccccc1COc1cc(C)ccc1C`: the Activity in the test with Botrytis cinerea [1] is reported as less than 50%; in the test with Podosphaera fuliginea [4], 90%.
With `CO/N=C(/c1ccccc1COc1ccc(Cl)cc1C)c1nccn1C`, the Activity in the test with Botrytis cinerea [1] is listed as less than 50%; in the test on Podosphaera fuliginea [2], 90%.
For `CON=C(c1cccs1)c1ccccc1COc1cc(C)ccc1C` (mixture of isomers), in that order: less than 50% and less than 90%.
As to `CO/N=C(\c1ccccc1COc1cc(C)ccc1C)c1ncnn1C`, the Activity in the test on Botrytis cinerea [1] is recorded as less than 50%; in the test on Podosphaera fuliginea [2], less than 90%.
Regarding `CON=C(c1ccco1)c1ccccc1COc1cc(C)ccc1C` (mixture of isomers), the Activity was less than 50% in the test with Botrytis cinerea [1] and 90% in the test with Podosphaera fuliginea [2].
As to `CON=C(c1cc(C)ns1)c1ccccc1COc1cc(C)ccc1C` (mixture of isomers), the Activity was less than 50% in the test on Botrytis cinerea [1] and less than 90% in the test with Podosphaera fuliginea [2].
For the molecule `CO/N=C(\c1ccccc1COc1ccccc1Cl)c1nccn1C`, the Activity is listed as less than 50% in the test with Botrytis cinerea [1] and 90% in the test with Podosphaera fuliginea [5].
For the molecule `CO/N=C(/c1nnco1)c1ccccc1COc1ccc(Cl)cc1C`, the Activity stood at 30% in the test on Botrytis cinerea [6]; 50% in the test on Botrytis cinerea [7]; 30% in the test with Botrytis cinerea [8]; 65% with Botrytis cinerea [9]; 100% in the test on Podosphaera fuliginea [10]; 100% in the test on Podosphaera fuliginea [11]. For the same molecule, the Activity with Podosphaera fuliginea [12] is given as 100%; in the test with Podosphaera fuliginea [13] it was 100%; in the test with Botrytis cinerea [14] it was less than 90%; in the test on Podosphaera fuliginea [5] it was 90%.
As for `CO/N=C(\c1ccccc1COc1ccc(C)cc1)c1nccn1C`, the Activity in the test with Botrytis cinerea [1] is given as less than 50%; with Podosphaera fuliginea [5], 90%.
Regarding `CO/N=C(/c1nnco1)c1ccccc1COc1ccccc1C`, the Activity is reported as less than 90% in the test with Botrytis cinerea [15] and 90% in the test on Podosphaera fuliginea [5].
As to `CO/N=C(/c1ncno1)c1ccccc1COc1cc(C)ccc1C`, the Activity in the test with Botrytis cinerea [1] was less than 50%; with Podosphaera fuliginea [2], less than 90%.
Regarding `CO/N=C(\c1ccccc1COc1ccccc1C)c1nccn1C`, the Activity is less than 90% in the test with Botrytis cinerea [15] and 90% with Podosphaera fuliginea [5].
Consider `CO/N=C(\c1ccccc1COc1cccc(Cl)c1)c1nccn1C`, for which the Activity in the test on Botrytis cinerea [1] was less than 50%; in the test with Podosphaera fuliginea [5] it was 90%.
As for `CON=C(c1ccccc1COc1cc(C)ccc1C)c1ccnn1C` (mixture of isomers), the Activity with Botrytis cinerea [1] is reported as less than 50%; in the test with Podosphaera fuliginea [2] it was less than 90%.
For `CO/N=C(\c1ccccc1COc1ccccc1)c1nccn1C`, in that order: less than 50% and 90%.
Take `CO/N=C(/c1nnco1)c1ccccc1COc1cccc(C)c1`: the results for the Activity in the test on Botrytis cinerea [1] and in the test on Podosphaera fuliginea [3] were less than 50% and 90%, respectively.
Consider `CO/N=C(/c1nnco1)c1ccccc1COc1ccccc1`, for which the results for the Activity in the test with Botrytis cinerea [1] and with Podosphaera fuliginea [4] were less than 50% and 90%, respectively.
For `CO/N=C(\c1ccccc1COc1cc(Cl)ccc1Cl)c1nccn1C`, the Activity in the test on Botrytis cinerea [1] is reported as less than 50%; in the test on Podosphaera fuliginea [5] it was 90%.
`CO/N=C(\c1ccccc1COc1ccc(Cl)cc1)c1nccn1C`: the Activity in the test with Botrytis cinerea [1] is listed as less than 50%; in the test with Podosphaera fuliginea [5], 90%.
For the molecule `CO/N=C(\c1ccccc1COc1cccc(C)c1)c1nccn1C`, the Activity is on record as less than 50% in the test with Botrytis cinerea [1] and 90% with Podosphaera fuliginea [3].
`CO/N=C(\c1ccccc1COc1ccc(Cl)cc1C)c1nccn1C`: the Activity in the test with Botrytis cinerea [6] was 55%; in the test on Botrytis cinerea [7] it was 55%; in the test with Botrytis cinerea [8], 60%; in the test on Botrytis cinerea [9] it was 55%; in the test with Podosphaera fuliginea [10], 100%; in the test on Podosphaera fuliginea [11] it was 100%. Besides, the Activity is 100% in the test on Podosphaera fuliginea [12], 100% in the test with Podosphaera fuliginea [13], less than 90% in the test on Botrytis cinerea [16] and 90% in the test with Podosphaera fuliginea [5].
Consider `CO/N=C(/c1nnco1)c1ccccc1COc1ccccc1OC`, for which the Activity is less than 50% in the test on Botrytis cinerea [1] and 90% with Podosphaera fuliginea [2].
For `CO/N=C(/c1ncn[nH]1)c1ccccc1COc1cc(C)ccc1C`, in that order: less than 50% and less than 90%.
`CON=C(c1cnco1)c1ccccc1COc1cc(C)ccc1C` (mixture of isomers): the Activity with Botrytis cinerea [1] is given as less than 50%; in the test with Podosphaera fuliginea [2] it was 90%.
As to `CO/N=C(\c1ccccc1COc1ccc(Cl)cc1Cl)c1nccn1C`, the Activity in the test with Botrytis cinerea [1] is listed as less than 50%; in the test with Podosphaera fuliginea [5] it was 90%.
For the molecule `CO/N=C(/c1nnco1)c1ccccc1COc1cccc(Cl)c1`, the Activity with Botrytis cinerea [1] was less than 50%; in the test on Podosphaera fuliginea [3], 90%.
In the same order, the values of `CO/N=C(\c1nnco1)c1ccccc1COc1ccc(Cl)cc1C` are less than 50% and 90%.
As to `CO/N=C(/c1nnco1)c1ccccc1COc1cc(C)ccc1C`, the Activity in the test on Botrytis cinerea [15] is reported as less than 90%; in the test on Podosphaera fuliginea [5], 90%.
Turning to `CO/N=C(/c1nnco1)c1ccccc1COc1ccc(Cl)cc1`, the Activity with Botrytis cinerea [1] is listed as less than 50%; with Podosphaera fuliginea [2], 90%.
On to `CO/N=C(/c1nnco1)c1ccccc1COc1cc(Cl)ccc1Cl`, for which the Activity in the test on Botrytis cinerea [1] was less than 50%; in the test with Podosphaera fuliginea [5] it was 90%.
With `CO/N=C(/c1ccon1)c1ccccc1COc1ccc(C)cc1C`, the Activity in the test with Botrytis cinerea [6] was 30%; in the test with Botrytis cinerea [7] it was 30%; in the test with Botrytis cinerea [8], 20%; in the test with Botrytis cinerea [9], 40%; in the test with Podosphaera fuliginea [10] it was 100%; in the test on Podosphaera fuliginea [11] it was 100%. Moreover, the Activity in the test with Podosphaera fuliginea [12] and in the test on Podosphaera fuliginea [13] was 100% in each case.
Turning to `CON=C(c1nccs1)c1ccccc1COc1cc(C)ccc1C` (mixture of isomers), the Activity with Botrytis cinerea [1] was less than 50%; with Podosphaera fuliginea [2] it was less than 90%.
